The source of these data is ChEMBL document CHEMBL4665636, “Spirooxindole-pyrrolidine heterocyclic hybrids promotes apoptosis through activation of caspase-3” (Bioorg Med Chem, 2019).

Calls of active or inactive are those of the source. The calls are words filed in the database; no cut-off is given here.

Series [1] relates to A549. Put plainly: Induction of apoptosis in human A549 cells assessed as necrotic cells at IC50 measured after 48 hrs by annexicV-FITC/propidium iodide staining based flow cytometry analysis (reference value: 0 %). Format: functional. For orientation: A flow cytometer gives signals particle by particle.
Series [2] concerns A549. The series is described as follows: Induction of apoptosis in human A549 cells assessed as early apoptotic cells at IC50 measured after 24 hrs by annexicV-FITC/propidium iodide staining based flow cytometry analysis (reference value: 0.16 %). The class given is functional.
Series [3] concerns A549. The series is described as follows: Antiproliferative activity against human A549 cells assessed as reduction in cell proliferation measured after 24 hrs by MTT assay. The class given is functional, cell-based. The conditions noted are these: A549, 24 h.
Series [4] deals with Jurkat. The series is described as follows: Antiproliferative activity against human Jurkat cells assessed as reduction in cell proliferation measured after 48 hrs by MTT assay. The class given is functional, cell-based.
For series [5], the system named is Jurkat. Put plainly: Antiproliferative activity against human Jurkat cells assessed as reduction in cell proliferation measured after 24 hrs by MTT assay. Format: functional, cell-based. In general terms: Tetrazolium assays rely on reduction of a dye to a coloured formazan, in cell work by metabolically active cells.
Series [6] concerns A549. The series is described as follows: Induction of apoptosis in human A549 cells assessed as necrotic cells at IC50 measured after 24 hrs by annexicV-FITC/propidium iodide staining based flow cytometry analysis (reference value: 0.23 %). Format: functional.
Series [7] deals with A549. Put plainly: Induction of apoptosis in human A549 cells assessed as late apoptotic cells at IC50 measured after 48 hrs by annexicV-FITC/propidium iodide staining based flow cytometry analysis (reference value: 0 %). The class given is functional.
Series [8] deals with A549. Put plainly: Induction of apoptosis in human A549 cells assessed as distribution of cleaved caspase 3 in cytoplasm at IC50 after 24 to 48 hrs by FITC staining based microscopy analysis. Format: functional, cell-based. The conditions noted are these: time hrs 24-48.
The test system of series [9] is A549. Put plainly: Induction of apoptosis in human A549 cells assessed as late apoptotic cells at IC50 measured after 24 hrs by annexicV-FITC/propidium iodide staining based flow cytometry analysis (reference value: 0.5 %). The class given is functional.
Series [10] deals with A549. Put plainly: Induction of apoptosis in human A549 cells assessed as distribution of cleaved caspase 3 in nuclei at IC50 after 24 to 48 hrs by FITC staining based microscopy analysis. The class given is functional, cell-based. The conditions noted are these: time hrs 24-48.
Series [11] has as its system A549. Put plainly: Induction of apoptosis in human A549 cells assessed as effect on viable cells by measuring fluorescence intensity IC50 measured after 24 hrs by annexicV-FITC/propidium iodide staining based flow cytometry analysis (reference value: 96.25 %). The class given is functional.
Series [12] concerns A549. Put plainly: Induction of apoptosis in human A549 cells assessed as viable cells at IC50 measured after 48 hrs by annexicV-FITC/propidium iodide staining based flow cytometry analysis (reference value: 99.67 %). Format: functional.
Series [13] deals with A549. Put plainly: Induction of apoptosis in human A549 cells assessed as viable cells at IC50 measured after 24 hrs by annexicV-FITC/propidium iodide staining based flow cytometry analysis (reference value: 99.11 %). Format: functional.
Series [14] has as its system A549. Put plainly: Induction of apoptosis in human A549 cells assessed as viable cells by measuring fluorescence intensity at IC50 measured after 48 hrs by annexicV-FITC/propidium iodide staining based flow cytometry analysis (reference value: 96.89 %). Format: functional.
Series [15] has as its system A549. Put plainly: Induction of apoptosis in human A549 cells at IC50 measured after 24 hrs by annexicV-FITC/propidium iodide staining based flow cytometry analysis (reference value: 3.63 %). Format: functional.
Series [16] concerns A549. Put plainly: Induction of apoptosis in human A549 cells assessed as early apoptotic cells at IC50 measured after 48 hrs by annexicV-FITC/propidium iodide staining based flow cytometry analysis (reference value: 0.33 %). Format: functional.
The nature of series [17]: Cytotoxicity against human PCS-130-010 cells assessed as reduction in cell viability up to 200 uM measured up to 48 hrs by MTT assay. The class given is cell-based. As to conditions: pcs-130-010, 48 h.
Series [18] has as its system A549. The series is described as follows: Induction of apoptosis in human A549 cells assessed as early apoptotic cells at IC50 measured after 48 hrs by annexicV-FITC/propidium iodide staining based flow cytometry analysis (reference value: 3.02 %). Format: functional.
Series [19] in a line: Cytotoxicity against human MCF10 cells assessed as reduction in cell viability up to 200 uM measured up to 48 hrs by MTT assay. As to conditions: mcf10, 48 h. Format: cell-based.
The subject of series [20] is A549. Put plainly: Antiproliferative activity against human A549 cells assessed as reduction in cell proliferation measured after 48 hrs by MTT assay. The class given is functional, cell-based. As to conditions: A549, 48 h.

The IC50 is the concentration needed to halve the response being measured. For the molecule `Cc1ccc(C2C([N+](=O)[O-])C(Cc3ccc(O)cc3)NC23C(=O)Nc2ccc(OC(F)(F)F)cc23)cc1` (centres undefined), the Activity was found to be 23.2% with A549 [1]; 31.45% with A549 [2]; 0% with A549 [6]; 17.79% with A549 [7]; 9.63% in the series on A549 [9]; 38.62% in the series on A549 [11]. Also, the Activity in the series on A549 [12] was 34.83%; in the series with A549 [13], 58.92%; with A549 [14] it was 29.53%; in the series on A549 [15], 63.87%; in the series with A549 [16] it was 24.18%; in series [17], “Non-Toxic”. In addition, the Activity in the series on A549 [18] is 70.35%; in [19], “Non-Toxic”. The IC50 in the series on A549 [3] was found to be 38.7 µM; in the series on Jurkat [4], 42.9 µM; in the series with Jurkat [5], 52.8 µM; in the series on A549 [20] it was 29.6 µM. The outcome in the series on A549 [8] and in the series with A549 [10] was Active.
As for `O=C1Nc2ccccc2C12NC(Cc1ccc(O)cc1)C([N+](=O)[O-])C2c1ccc(Br)cc1` (centres undefined), the IC50 with A549 [3] stood at 59.1 µM; with Jurkat [4], 43.2 µM; with Jurkat [5], 73.4 µM; with A549 [20], 39.4 µM. For the same molecule, the Activity result in series [17] and in series [19] was “Non-Toxic” each time.
As for `COc1ccc(C2C([N+](=O)[O-])C(Cc3ccc(O)cc3)NC23C(=O)Nc2ccc(OC(F)(F)F)cc23)cc1` (centres undefined), the concentration for half-maximal inhibition (IC50) with A549 [3] was found to be 53.5 µM; in the series on Jurkat [4] it was 42 µM; in the series on Jurkat [5], 62.9 µM; with A549 [20], 41.6 µM. Also, the Activity entry in series [17] and in series [19] was “Non-Toxic” in each case.
Consider `O=C1Nc2ccccc2C12NC(Cc1ccc(O)cc1)C([N+](=O)[O-])C2c1ccc(Cl)cc1` (centres undefined), for which the IC50 is 74.4 µM in the series on A549 [3], 51.5 µM in the series with Jurkat [4], 77.8 µM in the series on Jurkat [5] and 59.2 µM with A549 [20]. Moreover, the Activity entry in series [17] and in [19] was “Non-Toxic” each time.
With `CC[C@@]1(O)C(=O)OCc2c1cc1n(c2=O)Cc2cc3ccccc3nc2-1` [CAMPTOTHECIN], the Activity was 4.14% with A549 [1]; 10.49% in the series on A549 [2]; 6.31% in the series on A549 [6]; 11.17% in the series on A549 [7]; 28.49% in the series on A549 [9]; 58.66% in the series with A549 [11]. The Activity with A549 [12] is 53.97%; with A549 [13], 54.71%; in the series on A549 [14] it was 39.71%; in the series with A549 [15], 37.51%; in the series with A549 [16], 30.71%; in the series on A549 [18], 61.13%. In addition, the IC50 with A549 [3] came out at 50.9 µM; in the series with Jurkat [4], 22 µM; in the series with Jurkat [5], 51.5 µM; in the series on A549 [20], 32.1 µM. For the same molecule, the outcome with A549 [8] and in the series with A549 [10] was Active.
`O=C1Nc2ccc(OC(F)(F)F)cc2C12NC(Cc1ccc(O)cc1)C([N+](=O)[O-])C2c1ccccc1` (centres undefined): the IC50 with A549 [3] was determined as 45.8 µM; in the series with Jurkat [4] it was 45 µM; in the series with Jurkat [5], 65.8 µM; with A549 [20], 44.7 µM. Besides, the Activity result in [17] and in series [19] was “Non-Toxic” each time.
In the case of `COc1ccc(C2C([N+](=O)[O-])C(Cc3ccc(O)cc3)NC23C(=O)Nc2ccccc23)cc1` (centres undefined), the IC50 is 59.2 µM in the series with A549 [3], 47.5 µM in the series with Jurkat [4], 76.2 µM in the series on Jurkat [5] and 47.8 µM with A549 [20]. The Activity entry in series [17] and in series [19] was “Non-Toxic” in each case.
In the case of `O=C1Nc2ccccc2C12NC(Cc1ccc(O)cc1)C([N+](=O)[O-])C2c1ccccc1` (centres undefined), the IC50 was determined as 78.9 µM in the series with A549 [3], 61.6 µM with Jurkat [4], 98.3 µM with Jurkat [5] and 66.6 µM with A549 [20]. The Activity entry in series [17] and in [19] was “Non-Toxic” in each case.
As for `Cc1ccc(C2C([N+](=O)[O-])C(Cc3ccc(O)cc3)NC23C(=O)Nc2ccccc23)cc1` (centres undefined), the IC50 in the series with A549 [3] was 106 µM; in the series with Jurkat [4], 47.8 µM; in the series with Jurkat [5], 114 µM; with A549 [20], 56.7 µM. The Activity entry in series [17] and in [19] was “Non-Toxic” in each case.
For the molecule `O=C1Nc2ccc(OC(F)(F)F)cc2C12NC(Cc1ccc(O)cc1)C([N+](=O)[O-])C2c1cccc([N+](=O)[O-])c1` (centres undefined), the IC50 in the series with A549 [3] amounted to 65 µM; in the series with Jurkat [4], 50.1 µM; in the series with Jurkat [5], 83.3 µM; in the series on A549 [20] it was 61.2 µM. Also, the Activity entry in series [17] and in series [19] was “Non-Toxic” each time.
Consider `O=C1Nc2ccccc2C12NC(Cc1ccc(O)cc1)C([N+](=O)[O-])C2c1cccc([N+](=O)[O-])c1` (centres undefined), for which the 50% inhibitory concentration (IC50) turned out to be 78.4 µM in the series with A549 [3], 48.6 µM with Jurkat [4], 74.6 µM in the series with Jurkat [5] and 117 µM in the series on A549 [20]. Also, the Activity result in series [17] and in series [19] was “Non-Toxic” in each case.
Regarding `O=C1Nc2ccc(OC(F)(F)F)cc2C12NC(Cc1ccc(O)cc1)C([N+](=O)[O-])C2c1ccc(Br)cc1` (centres undefined), the IC50 in the series with A549 [3] is 51.4 µM; with Jurkat [4], 44.1 µM; in the series with Jurkat [5] it was 67.2 µM; with A549 [20], 37.2 µM. In addition, the Activity entry in [17] and in [19] was “Non-Toxic” throughout.
In the case of `O=C1Nc2ccc(OC(F)(F)F)cc2C12NC(Cc1ccc(O)cc1)C([N+](=O)[O-])C2c1ccc(Cl)cc1` (centres undefined), the IC50 in the series on A549 [3] stood at 44.9 µM; in the series on Jurkat [4], 44.8 µM; in the series on Jurkat [5], 67.7 µM; in the series on A549 [20], 38.1 µM. Besides, the Activity result in series [17] and in [19] was “Non-Toxic” each time.
